From US11866430B2, “Naphthyridinone compounds useful as T cell activators” (priority 2018, dated 2024)
Read-outs that look alike come from different tables or passages of the source.

Columns and labels:
[1] = target: T1, human DGKζ (Homo sapiens (Human), UniProt Q13574); experiment: DGKζ LIPGLO assay (extruded liposome substrate); assay type: biochemical
Protocol: (§1) The DGKα and DGKζ reactions were performed using either extruded liposome (DGKα and DGKζ LIPGLO assays) or detergent/lipid micelle substrate (DGKα and DGKζ assays). The reactions were carried out in 50 mM MOPS pH 7.5, 100 mM NaCl, 10 mM MgCl2, 1 μM CaCl2, and 1 mM DTT (assay buffer). The reactions using a detergent/lipid micelle substrate also contained 50 mM octyl B-D-glucopyranoside.
(§2) A 5 mL enzyme/substrate solution at 2× final reaction concentration was prepared by combining 2.5 mL 4× enzyme solution (20 nM DGKα or DGKζ (prepared as described below) in assay buffer) and 2.5 mL of either 4× liposome or 4× detergent/lipid micelle solution (compositions described below) and incubated at room temperature for 10 minutes. Next, 1 μL 2× enzyme/substrate solution was added to wells containing the test compound and reactions were initiated with the addition of 1 μL 300 uM ATP. The reactions were allowed to proceed for 1 hr, after which 2 μL Glo Reagent (Promega V9101) was added and incubated for 40 minutes. Next, 4 μL Kinase Detection Reagent was added and incubated for 30 minutes. Luminescence was recorded using an EnVision microplate reader. […] The compounds were evaluated at 11 concentrations to determine IC50.
(§3) The PC, DAG, and PS were dissolved in chloroform, combined, and dried in vacuo to a thin film. The lipids were hydrated to 20 mM in 50 mM MOPS pH 7.5, 100 mM NaCl, 5 mM MgCl2, and were freeze-thawed five times. The lipid suspension was extruded through a 100 nm polycarbonate filter eleven times. […] The liposome preparation was stored at 4° C. for as long as four weeks.
Baculovirus amplification was achieved using infected Sf9 cells at 1:1500 virus/cell ratios, and grown for 65 hours at 27° C. post-transfection.
(§4) The expression scale up for each protein was carried out in the Cellbag 50 L WAVE-Bioreactor System 20/50 from GE Healthcare Bioscience. 12 L of 2×10^6 cells/mL Sf9 cells (Expression System, Davis, Calif.) grown in ESF921 insect medium (Expression System) were infected with virus stock at 1:200 virus/cell ratios, and grown for 66-68 hours at 27° C. post-infection. The infected cell culture was harvested by centrifugation at 2000 rpm for 20 min 4° C. in a SORVALL® RC12BP centrifuge. The cell pellets were stored at −70° C. until purification.
The cells were lysed using nitrogen cavitation method with a nitrogen bomb (Parr Instruments), and the lysates were clarified by centrifugation. […] The three steps column chromatography included nickel affinity resin capture (i.e. HisTrap FF crude, GE Healthcare), followed by size exclusion chromatography (i.e. HiLoad 26/600 Superdex 200 prep grade, GE Healthcare for DGK-alpha, and HiPrep 26/600 Sephacryl S 300_HR, GE Healthcare for DGK-zeta). The third step was ion exchange chromatography, and differed for the two isoforms. DGKα was polished using Q-Sepharose anion exchange chromatography (GE Healthcare). DGKζ was polished using SP Sepharose cation exchange chromatography (GE Healthcare). The proteins were delivered at concentrations of ≥2 mg/mL. The formulation buffers were identical for both proteins: 50 mM Hepes, pH 7.2, 500 mM NaCl, 10% v/v glycerol, 1 mM TCEP, and 0.5 mM EDTA.

[2] = target: T2, human DGKα (Homo sapiens (Human), UniProt P23743); experiment: DGKα LIPGLO assay (extruded liposome substrate); assay type: biochemical
T2 sequence (P23743 other isoform, or with tags, fused parts or gaps): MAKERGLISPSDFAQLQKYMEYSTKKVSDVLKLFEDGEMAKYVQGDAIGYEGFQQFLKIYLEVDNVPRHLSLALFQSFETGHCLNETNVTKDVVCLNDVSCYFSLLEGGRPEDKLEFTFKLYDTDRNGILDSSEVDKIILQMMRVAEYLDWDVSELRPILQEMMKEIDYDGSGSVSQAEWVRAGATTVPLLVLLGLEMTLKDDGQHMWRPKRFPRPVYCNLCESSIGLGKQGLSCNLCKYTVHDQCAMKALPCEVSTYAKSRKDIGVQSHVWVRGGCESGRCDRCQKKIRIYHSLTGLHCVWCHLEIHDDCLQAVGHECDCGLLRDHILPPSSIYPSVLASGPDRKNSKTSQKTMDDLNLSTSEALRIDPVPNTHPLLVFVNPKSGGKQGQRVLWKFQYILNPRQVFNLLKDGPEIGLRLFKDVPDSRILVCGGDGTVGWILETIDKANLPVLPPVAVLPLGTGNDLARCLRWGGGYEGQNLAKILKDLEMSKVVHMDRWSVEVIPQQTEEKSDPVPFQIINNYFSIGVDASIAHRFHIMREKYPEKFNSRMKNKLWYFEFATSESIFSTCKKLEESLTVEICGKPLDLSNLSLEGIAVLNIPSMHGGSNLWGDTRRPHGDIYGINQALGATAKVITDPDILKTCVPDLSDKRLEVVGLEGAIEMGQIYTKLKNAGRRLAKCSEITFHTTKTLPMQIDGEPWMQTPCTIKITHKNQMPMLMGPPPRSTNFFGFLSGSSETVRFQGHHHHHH
Protocol: as §1, with “B-D-glucopyranoside. […] The lipid substrate concentrations were […], 0.25 mM DAG, and 2.75 mM PC for the extruded liposome reactions.” for “B-D-glucopyranoside.”
as §2, with “The compound inhibition studies were carried out as follows: 50 nL droplets of each test compound (top concentration 10 mM with 11 point, 3-fold dilution series for each compound) solubilized in DMSO were transferred to wells of a white 1536 well plate (Corning 3725). A 5” for “A 5”
as §3
Human DGK-alpha-TVMV-His-pFBgate and human DCK-zeta-transcript variant-2-TVMV-His-pFBgate baculovirus samples were generated using the Bac-to-Bac baculovirus expression system (Invitrogen) according to the manufacturer's protocol. The DNA used for expression of DGK-alpha and DGK-zeta have SEQ ID NOs: 1 and 3, respectively. Baculovirus amplification was achieved using infected Sf9 cells at 1:1500 virus/cell ratios, and grown for 65 hours at 27° C. post-transfection.
as §4
Full length human DGKα and DGKζ, each expressed containing a TVMV-cleavable C-terminal Hexa-His tag sequence (SEQ ID NOs: 2 and 4, respectively) and produced as described above, were purified from Sf) baculovirus-infected insect cell paste. The cells were lysed using nitrogen cavitation method with a nitrogen bomb (Parr Instruments), and the lysates were clarified by centrifugation. […] The three steps column chromatography included nickel affinity resin capture (i.e. HisTrap FF crude, GE Healthcare), followed by size exclusion chromatography (i.e. HiLoad 26/600 Superdex 200 prep grade, GE Healthcare for DGK-alpha, and HiPrep 26/600 Sephacryl S 300_HR, GE Healthcare for DGK-zeta). The third step was ion exchange chromatography, and differed for the two isoforms.

[3] = target: T1, human DGKζ; experiment: DGKζ assay (detergent/lipid micelle substrate); assay type: biochemical
Procedure, shortened: (§5)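 Full-length human DGKζ (and DGKα), C-terminal His-tagged, Sf9-expressed, with phosphatidylserine/DAG micelles in 50 mM octyl glucoside; buffer 50 mM MOPS pH 7.5, 100 mM NaCl, 10 mM MgCl2, 1 μM CaCl2, 1 mM DTT.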

[4] = target: T2, human DGKα; experiment: biochemical; conditions: detergent/lipid micelle substrate; read-out: DGKα IC50
Procedure, shortened: as §5

[5] = system: pre-activated CD4 T cells and Raji cells; experiment: Raji CD4 T Cell IL2 Assay; assay type: cell-based
[6] = extruded liposome substrate, read-out: DGKζ LIPGLO IC50
[7] = detergent/lipid micelle substrate; read-out: DGKζ IC50

T1 sequence (Q13574 other isoform, or with tags, fused parts or gaps): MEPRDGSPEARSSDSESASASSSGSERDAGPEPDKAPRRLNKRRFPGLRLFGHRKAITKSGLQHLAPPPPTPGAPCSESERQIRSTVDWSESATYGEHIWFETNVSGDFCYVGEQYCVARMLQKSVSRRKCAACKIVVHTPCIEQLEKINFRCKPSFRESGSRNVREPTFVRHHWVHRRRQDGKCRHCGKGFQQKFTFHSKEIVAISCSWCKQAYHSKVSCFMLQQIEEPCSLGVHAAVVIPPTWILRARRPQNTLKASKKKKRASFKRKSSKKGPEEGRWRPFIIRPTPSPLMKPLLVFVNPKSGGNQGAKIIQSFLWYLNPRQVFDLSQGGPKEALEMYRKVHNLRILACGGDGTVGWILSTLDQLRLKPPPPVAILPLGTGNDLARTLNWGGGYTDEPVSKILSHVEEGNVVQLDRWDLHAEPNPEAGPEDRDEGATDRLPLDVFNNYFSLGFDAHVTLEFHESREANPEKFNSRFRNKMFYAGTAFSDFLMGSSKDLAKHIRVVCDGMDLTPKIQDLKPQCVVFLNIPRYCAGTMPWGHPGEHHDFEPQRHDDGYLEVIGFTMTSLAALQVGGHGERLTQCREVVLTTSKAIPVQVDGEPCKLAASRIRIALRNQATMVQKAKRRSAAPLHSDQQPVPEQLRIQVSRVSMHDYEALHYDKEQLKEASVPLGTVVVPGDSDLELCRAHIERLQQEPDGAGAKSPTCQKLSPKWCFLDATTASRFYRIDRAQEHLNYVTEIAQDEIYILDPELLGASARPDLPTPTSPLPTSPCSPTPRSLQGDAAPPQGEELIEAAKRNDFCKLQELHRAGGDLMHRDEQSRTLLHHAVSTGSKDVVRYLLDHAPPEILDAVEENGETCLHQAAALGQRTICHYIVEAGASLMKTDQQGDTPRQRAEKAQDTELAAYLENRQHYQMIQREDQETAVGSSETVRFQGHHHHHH

Structure (SMILES): Cn1c(=O)c(C#N)c(N2CCN(Cc3cc(Br)ccc3O)CC2)c2nc(Cl)ccc21 [Example 275, 4-{4-[(5-bromo-2-hydroxyphenyl)methyl]piperazin-1-yl}-6-chloro-1-methyl-2-oxo-1,2-dihydro-1,5-naphthyridine-3-carbonitrile]
- IC50 [1, 6]: 10 µM
- IC50 [2]: 0.77 µM
- IC50 [3, 7]: 58 µM
- IC50 [4]: 0.3 µM
- IC50 ([5]; Homo sapiens, Raji): 0.073 µM

Structure (SMILES): Cn1c(=O)c(C#N)c(N2CCN(Cc3cccc4c3NCC4)CC2)c2nc(Cl)ccc21 [Example 216, 6-chloro-4-(4-(indolin-7-ylmethyl)piperazin-1-yl)-1-methyl-2-oxo-1,2-dihydro-1,5-naphthyridine-3-carbonitrile]
- IC50 [1, 6]: 4.8 µM
- IC50 [2]: 1.2 µM
- IC50 [3, 7]: 54 µM
- IC50 [4]: 1.4 µM
- IC50 ([5]; Homo sapiens, Raji): 0.064 µM

Structure (SMILES): COc1cc(F)ccc1C(c1ccc(F)cc1)N1CCN(c2c(C#N)c(=O)n(C)c3ccc(Br)nc23)CC1 (single isomer, unassigned) [Example 16, 6-bromo-4-{4-[(4-fluoro-2-methoxyphenyl)(4-fluorophenyl)methyl]piperazin-1-yl}-1-methyl-2-oxo-1,2-dihydro-1,5-naphthyridine-3-carbonitrile]
- IC50 [1, 6]: 27 µM
- IC50 [2]: 4.3 µM
- IC50 [3, 7]: > 240 µM
- IC50 [4]: 6.4 µM
- IC50 ([5]; Homo sapiens, Raji): 0.021 µM

Structure (SMILES): CC(c1ccc(F)cc1)N1CCN(c2c(C#N)c(=O)n(CC3CC3)c3ccc(Br)nc23)CC1 (single isomer, unassigned) [Example 164, 6-bromo-1-(cyclopropylmethyl)-4-(4-(1-(4-fluorophenyl)ethyl)piperazin-1-yl)-2-oxo-1,2-dihydro-1,5-naphthyridine-3-carbonitrile]
- IC50 ([1]; DGKζ LIPGLO IC50, extruded liposome substrate): 59 µM
- IC50 [2]: 81 µM
- IC50 ([3]; read-out: DGKζ IC50; detergent/lipid micelle substrate): > 240 µM
- IC50 [4]: > 240 µM
- IC50 [5]: 2.6 µM

Structure (SMILES): CC(c1ccc(F)cc1)N1CCN(c2c([N+](=O)[O-])c(=O)n(CC#N)c3ccc(C#N)nc23)CC1 (centres unmarked) [Example 151, 5-(cyanomethyl)-8-(4-(1-(4-fluorophenyl)ethyl)piperazin-1-yl)-7-nitro-6-oxo-5,6-dihydro-1,5-naphthyridine-2-carbonitrile]
- IC50 [1, 6]: 3.1 µM
- IC50 [2]: 7.3 µM
- IC50 [3, 7]: 27 µM
- IC50 [4]: 38 µM
- IC50 ([5]; Homo sapiens, Raji): 0.88 µM

Structure (SMILES): CCC(c1ccc(F)cc1)N1CCN(c2c(C#N)c(=O)n(C)c3ccc(Br)nc23)CC1 (single isomer, unassigned) [Example 26, 6-bromo-4-{4-[1-(4-fluorophenyl)propyl]piperazin-1-yl}-1-methyl-2-oxo-1,2-dihydro-1,5-naphthyridine-3-carbonitrile]
- IC50 [1, 6]: 18 µM
- IC50 [2]: 6.7 µM
- IC50 [3, 7]: 85 µM
- IC50 [4]: 4.3 µM
- IC50 [5]: 0.14 µM

Structure (SMILES): CC(c1ccc(F)cc1)N1CCN(c2c(C#N)c(=O)n(C)c3ccc(Br)nc23)CC1 (single isomer, unassigned) [Example 24, 6-bromo-4-{4-[1-(4-fluorophenyl)ethyl]piperazin-1-yl}-1-methyl-2-oxo-1,2-dihydro-1,5-naphthyridine-3-carbonitrile]
- IC50 [1, 6]: 90 µM
- IC50 [2]: 0.15 µM
- IC50 [3, 7]: > 240 µM
- IC50 [4]: 0.034 µM
- IC50 [5]: 0.012 µM

Structure (SMILES): Cn1c(=O)c(C#N)c(N2CCN(Cc3cccc(Cl)c3O)CC2)c2nc(Cl)ccc21 [Example 293, 6-chloro-4-{4-[(3-chloro-2-hydroxyphenyl)methyl]piperazin-1-yl}-1-methyl-2-oxo-1,2-dihydro-1,5-naphthyridine-3-carbonitrile]
- IC50 [1, 6]: 6 µM
- IC50 [2]: 0.6 µM
- IC50 [3, 7]: 58 µM
- IC50 [4]: 0.27 µM
- IC50 ([5]; Homo sapiens, Raji): 0.11 µM

Structure (SMILES): Cn1c(=O)c(C#N)c(N2CCN(Cc3cccc(F)c3)CC2)c2nc(Cl)ccc21 [Example 321, 6-chloro-4-{4-[(3-fluorophenyl)methyl]piperazin-1-yl}-1-methyl-2-oxo-1,2-dihydro-1,5-naphthyridine-3-carbonitrile]
- IC50 [1, 6]: 12 µM
- IC50 [2]: 0.34 µM
- IC50 [3, 7]: > 240 µM
- IC50 [4]: 0.16 µM
- IC50 ([5]; Homo sapiens, Raji): 0.31 µM

Structure (SMILES): Cc1ccc(CN2CCN(c3c(C#N)c(=O)n(C)c4ccc(Cl)nc34)CC2)c(O)c1 [Example 273, 6-chloro-4-{4-[(2-hydroxy-4-methylphenyl)methyl]piperazin-1-yl}-1-methyl-2-oxo-1,2-dihydro-1,5-naphthyridine-3-carbonitrile]
- IC50 [1, 6]: 7.8 µM
- IC50 [2]: 0.082 µM
- IC50 [3, 7]: 69 µM
- IC50 [4]: 0.018 µM
- IC50 ([5]; Homo sapiens, Raji): 0.064 µM

Structure (SMILES): COc1ccc(CN2CCN(c3c(C#N)c(=O)n(C)c4ccc(Cl)nc34)CC2)cc1F [Example 279, 6-chloro-4-{4-[(3-fluoro-4-methoxyphenyl)methyl]piperazin-1-yl}-1-methyl-2-oxo-1,2-dihydro-1,5-naphthyridine-3-carbonitrile]
- IC50 [1, 6]: 5.8 µM
- IC50 [2]: 0.81 µM
- IC50 [3, 7]: 56 µM
- IC50 [4]: 0.38 µM
- IC50 ([5]; Homo sapiens, Raji): 0.092 µM

Structure (SMILES): Cn1c(=O)c(C#N)c(N2CCN(Cc3ccc(F)cc3)CC2)c2nc(Cl)ccc21 [Example 308, 6-chloro-4-{4-[(4-fluorophenyl)methyl]piperazin-1-yl}-1-methyl-2-oxo-1,2-dihydro-1,5-naphthyridine-3-carbonitrile]
- IC50 [1, 6]: 13 µM
- IC50 [2]: 0.95 µM
- IC50 [4]: 0.19 µM
- IC50 ([5]; Homo sapiens, Raji): 0.21 µM
